According to patent US20210145838A1, “SELECTIVE PDE4D INHIBITORS AGAINST DEMYELINATING DISEASES” (Universiteit Hasselt, priority 2018, published 2021):

Key:
[1] = tested on: cuprizone demyelinated mice; experiment: In vivo remyelination in cuprizone-demyelinated mice (MBP IHC, mbp qPCR, TEM G ratio); parameters: species or system mouse
Text: (§1) FIG. 8: MBP expression in the corpus callosum upon PDE4 inhibition. A) IHC; B no IHC. Forty-two eleven-weeks-old male C57bl6 mice were either subjected to a cuprizone treatment to induce demyelination (n=32) or left without treatment (control; n=10) for six weeks (day 0-42). From day 40 till day 49, the control mice and part of the cuprizone-treated mice (vehicle; n=10) received a vehicle treatment, receiving a s.c. injection with a 1% DMSO in 0.5% methylcellulose solution twice a day. The remaining cuprizone-treated mice received a roflumilast treatment (roflu 1 mg/kg (n=11) or roflu 3 mg/kg (n=11) in vehicle) twice a day from day 40-49. All animals were sacrificed at day 49. Brains were isolated at anteroposterior coordinates from −0.3 to −1.5 mm was cut in the midsagittal plane and used for slicing and immunohistochemistry (IHC) against MBP.
as §1, with “9:” for “8:”, “hippocampus” for “corpus callosum”, “inhibition.” for “inhibition. A) IHC; B no IHC.”, “immunohistochemistry” for “immunohistochemistry (IHC)”
FIG. 10: MBP expression in the corpus callosum upon PDE4 inhibition. C57bl6 mice were either subjected to a cuprizone treatment to induce demyelination or left without treatment for six weeks (day 0-42). From day 40 till day 49, the control mice and part of the cuprizone-treated mice received a vehicle treatment, receiving a s.c. injection with a 1% DMSO in 0.5% methylcellulose solution twice a day. The remaining cuprizone-treated mice received a roflumilast treatment (roflu 1 mg/kg or roflu 3 mg/kg in vehicle) twice a day from day 40-49. All animals were sacrificed at day 49. The left part of the corpus callosum at bregma Y-Z was used for TEM and subsequent G ratio measurement. G ratio is the ratio of the inner axonal diameter to the total outer diameter representing myelination of axons (e.g. a higher G ratio represents a demyelination). […] Data are expressed as mean±SEM with. (*p<0.05, **p<0.01, ***p<0.001). Control (n=5), vehicle (n=5), roflu 1 mg/kg (n=7), and roflu 3 mg/kg (n=9).
FIG. 12: MBP expression in the corpus callosum upon PDE4 inhibition. Thirty-six eleven-weeks-old male C57bl6 mice were either subjected to a cuprizone treatment to induce demyelination (n=27) or left without treatment (control; n=9) for six weeks (day 0-42). From day 40 till day 49, the control mice and part of the cuprizone-treated mice (vehicle; n=9) received a vehicle treatment, receiving a s.c. injection with a 1% DMSO in 0.5% methylcellulose solution twice a day. The remaining cuprizone-treated mice received a gebr32a treatment (gebr32a 0.1 mg/kg (n=9) or gebr32a 0.3 mg/kg (n=9) in vehicle) twice a day from day 40-49. All animals were sacrificed at day 49. Brains were isolated at anteroposterior coordinates from −0.3 to −1.5 mm was cut in the midsagittal plane and used for slicing and immunohistochemistry against MBP.
FIG. 13. MBP expression in the dendate gyrus upon PDE4D inhibition. Thirty-six eleven-weeks-old male C57bl6 mice were either subjected to a cuprizone treatment to induce demyelination (n=27) or left without treatment (control; n=9) for six weeks (day 0-42). From 20 day 40 till day 49, the control mice and part of the cuprizone-treated mice (vehicle; n=9) received a vehicle treatment, receiving a s.c. injection with a 1% DMSO in 0.5% methylcellulose solution twice a day. […]

[2] = tested on: primary rat Schwann cells; experiment: Differentiation of primary rat Schwann cells; type: cell-based; details: Roflumilast 5 or 10 μM, BPN14770 1 or 5 μM
Protocol: FIG. 16: Inhibition of PDE4 by roflumilast and PDE4D by BPN induces differentiation of primary rat schwann cells. Primary rat schwann cells were isolated from p3 Wistar rats. Primary rat schwann cells were cultured onto an aligned network of electrospinned fibers and stimulated with vehicle (0.1% DMSO), the PDE4 inhibitor Roflumilast (5 μM or 10 μM) or the PDE4D inhibitor BPN (1 μM or 5 μM), both dissolved in 0.1% DMSO. Cells were fixated (IHC) or lysated (WB and qPCR) at day 14.
A: Primary rat schwann cells were stained for MBP (red) and MAG (green), both markers for Schwann cells differentiation (100.000 cells).
B: MBP and β-actin protein expression of primary rat schwann cells was analyzed using western blot (500.000 cells)
C: qPCR was conducted to evaluate changes in mRNA expression of MBP, PLP, MAG and SOX10. The expression of all these genes was increased upon PDE4 or PDE4D inhibition.
Primary rat Schwann cells were isolated from p3 Wistar rats. […] MBP and β-actin protein expression was analyzed using western blot analysis on primary rat Schwann cells (500.000 cells). […] Data were analyzed using a one-way ANOVA with Dunnett's multiple comparison test (compared to control); *p<0.05, **p<0.01, ***p<0.001. qPCR was conducted to evaluate changes in mRNA expression of MBP, PLP, MAG and SOX10.

[3] = Emetic side-effects at the remyelination-inducing dose; type: in vivo
[4] = 0.1 mg/kg s.c. twice a day, day 40-49
[5] = 0.3 mg/kg s.c. twice a day, day 40-49, vs vehicle treated mice
[6] = 3 mg/kg s.c. twice a day, day 40-49
[7] = 3 mg/kg s.c. twice a day, day 40-49, vs vehicle-treated cuprizone mice

Structure (SMILES): OC(CN1CCOCC1)Cn1ccc(-c2ccc(OC(F)F)c(OC3CCCC3)c2)n1 (stereo not drawn) [Gebr32a]
- MBP expression in the corpus callosum (IHC) [1, 4]: not sufficient to significantly improve MPB expression
- MBP expression in the dendate gyrus (IHC) [1, 4]: not sufficient to significantly improve MPB expression
- MBP expression in the corpus callosum (IHC) [1, 5]: significantly increased MBP expression
- MBP expression in the dendate gyrus (IHC) [1, 5]: significantly increased MBP expression
- Remyelination-inducing dosage compared to roflumilast treatment ([1]; lower dosage, 0.3 mg/kg vs 3 mg/kg): 10 fold

Structure (SMILES): O=C(Nc1c(Cl)cncc1Cl)c1ccc(OC(F)F)c(OCC2CC2)c1 [roflumilast]
- Relative mbp gene expression in the corpus callosum (qPCR) ([1]; 1 mg/kg and 3 mg/kg s.c. twice a day, day 40-49): not altered
- G ratio in the corpus callosum (TEM) ([1]; 1 mg/kg s.c. twice a day, day 40-49): re-establishment of the G ratio to control levels
- mbp mRNA expression in the corpus callosum (qPCR) compared to the control ([1]; 1 mg/kg s.c. twice a day, vs non-demyelinated control): reduced mbp mRNA expression
- G ratio in the corpus callosum (TEM) [1, 6]: re-establishment of the G ratio to control levels
- MBP expression in hippocampus CA1 and CA3 (IHC) [1, 6]: not in the cornu amonis 1 (CA1) or 3 (CA3)
- MBP expression in the corpus callosum (IHC) [1, 7]: increased MBP expression
- MBP expression in the dendate gyrus (IHC) [1, 7]: increased MBP expression
- MBP and MAG protein expression (IHC) ([2]; day 14): increases dose-dependently
- mRNA expression of MBP, MAG, PLP and SOX10 (qPCR) ([2]; vs control conditions): increased
- Emetic side-effects [3]: displayed emetic side-effects
